Values quoted from earlier work in patent US20230148652A1, “ORAL PRODUCTS WITH NICOTINE-POLYMER COMPLEX” (NICOVENTURES TRADING LIMITED, priority 2021, published 2023).

Key:
[1] = partition between octanol and water

## CC(/C=C/C=C(C)/C=C/C(=O)O)=C\C=C\C=C(C)\C=C\C=C(C)\C=C\C(=O)O (stereo in doubt) [norbixin, (2E,4E,6E,8E,10E,12E,14E,16E,18E)-4,8,13,17-tetramethylicosa-2,4,6,8,10,12,14,16,18-nonaenedioic acid]
other
  solubility: water soluble

## COC(=O)/C=C/C(C)=C\C=C\C(C)=C\C=C\C=C(C)\C=C\C=C(C)\C=C\C(=O)O [bixin, (2E,4E,6E,8E,10E,12E,14E,16Z,18E)-20-methoxy-4,8,13,17-tetramethyl-20-oxoicosa-2,4,6,8,10,12,14,16,18-nonaenoic acid]
other
  solubility: soluble in fats and alcohols but insoluble in water
When isolated
  chemical stability: chemically unstable when isolated

## CC(C)[C@@H]1CC[C@@H](C)C[C@H]1OC(=O)CCC(=O)O [monomenthyl succinate]
[1]
  logP: 3

## ethyl benzoic acid
[1]
  logP: 2.9

## isopropyl benzoic acid
[1]
  logP: 3.5
